# Source: paper PMC5695911 (Cell Reports, 2017)
# Where two headings read alike, the source gives them in different places.
# Tests used:
# [1] = system: isolated rat pancreases; assay: Isolated perfused rat pancreas, insulin secretion
# [2] = system: human glucagon receptor (hGCGR); assay type: cell-based
# [3] = system: diabetic animal models (db/db and ob/ob mice); assay: Administration of PG 1-61 to diabetic animal models; assay type: in vivo; details: 1 pmol; db/db (12 weeks, n=5) and ob/ob mice (14-15 weeks, n=3)
# [4] = system: INS1 cells; assay: cAMP accumulation in cultured rat β cells; assay type: cell-based
# [5] = system: protein kinase A (PKA), glucose-6-phosphatase (G6P), phosphorylase kinase (PKC-1), glycogen phosphorylase (GP), phosphoenolpyruvate carboxykinase (PECK); assay type: cell-based, human
# [6] = system: human glucagon-like peptide 1 receptor (hGLP-1R); assay type: cell-based; details: COS-7 cells
# [7] = system: rats; details: i.v., 1 pmol, 20 min
# [8] = system: cultured human hepatocytes (HepG2); assay: cAMP in cultured human hepatocytes; assay type: cell-based
# [9] = system: INS1 cells; assay type: cell-based, rat
sequence,measurement,setting,value
RSLQDTEEKSRSFSASQADPLSDPDQMNEDKRHSQGTFTSDYSKYLDSRRAQDFVQWLMNT [PG 1-61],"insulin secretion, tAUC",[1],"3,534 ± 321 min × pM"
same,"fold decreased potency compared to native glucagon, hGCGR",[2]; from LogEC50 vs glucagon,100 fold
same,agonist class at hGCGR,[2]; transiently transfected COS-7 cells,full agonist
same,inhibition of glucagon secretion in diabetic animals,[3],not seem to inhibit the secretion of glucagon
same,accumulation of cAMP,[4],dose-dependently increased accumulation of cAMP
same,"protein levels of PKA, G6P, PKC-1, GP and PECK","[5]; 30-min incubation, 1,000 pM",significantly increased protein levels
same,"protein levels of PKA, G6P, PKC-1, GP and PECK","[5]; 3 hr incubation, compared with 30 min",more pronounced effects
same,protein levels of the enzymes in siRNA-treated cells,"[5]; siRNA GCGR-treated cells, 30-min incubation",tended to be lower
same,agonist class / potency in words at hGLP-1R,[6],very low potency
same,"activation of hGLP-1R, in words",[6]; Figure 3B legend,but not the human glucagon-like peptide 1 receptor (hGLP-1R)
same,"percent of Emax of GLP-1 reached at 1 μM, hGLP-1R",[6]; at a concentration of 1 μM,38%
same,"blood glucose, in words",[7],increased significantly
same,plasma amino acids (summed molarity),[7],decreased significantly
same,plasma insulin,[7]; no increase with mannitol,increased transiently
same,stimulated increase in cAMP after siRNA knockdown of hGCGR vs siRNA control,"[8]; HepG2, siRNA GCGR",attenuated
same,cAMP,"[8]; HepG2, 10–1,000 pM",stimulated cAMP production dose-dependently
same,insulin release compared to PBS,"[9]; 1 nM, p < 0.001",significantly stimulated insulin release
same,PG 1-61-induced insulin secretion after siRNA knockdown of rGCGR vs mock,"[9]; 1 nM, p < 0.01",significantly blunted
same,insulin release compared to native glucagon,[9]; PG 1-61 1 nM,comparable to that of native glucagon
